Tests used:
[1] = test system: 5TGM1 luciferase expressing multiple myeloma cells; test: 5TGM1 multiple myeloma mouse model; format: in vivo, Mice (C57BL/6 KalwRij)
Protocol: FIG. 5A is a set of images and FIG. 5B and FIG. 5C are graphs showing the efficacy of RF-036 (MMP-13i) for the treatment of multiple myeloma. FIG. 5A, 5B: Mice (C57BL/6 KalwRij) were inoculated with 5TGM1 luciferase expressing multiple myeloma cells (1×10^6) and after 10 days randomized into vehicle (n=7) or MMP-13i (n=6) groups. Mice were treated daily with RF-036 at 2 mg/kg via intraperitoneal injection. Bioluminescence (FIG. 5A) was quantitated every 3-4 days (FIG. 5B). […] Asterisks denote statistical significance.
FIG. 7 is a Kaplan-Meier curve of overall survival time of 5TGM1 multiple myeloma bearing mice treated with RF-036 (MMP-13i) (n=6; 2 mg/kg daily) or vehicle control (n=7). The median survival time for the RF-036 group was 46 days compared to 41 for the vehicle control group.
The overall survival time of 5TGM1 multiple myeloma bearing mice treated with RF-036 (MMP-13i) (n=6; 2 mg/kg daily) was compared to vehicle control (n=7) (FIG. 7). The median survival time for the RF-036 group was 46 days compared to 41 for the vehicle control group.

[2] = test system: multiple myeloma cell lines; test: Viability/proliferation of multiple myeloma cell lines; format: cell-based; details: over 48 h
mature osteoclasts = test: Inhibitor added to mature osteoclasts, TRAP-positive osteoclasts counted; details: TRAP positive osteoclasts counted after 5 days
[3] = test system: bone marrow-derived macrophages (BMMs); details: bone marrow co-cultures/BMMs with M-CSF and RANKL, counted after 5 days
[4] = test system: MSCs and monocytic cells (RAW 267); test: Proliferation of stromal cells of the bone microenvironment

CNC(=O)[C@@H](NC(=O)c1ccc(-c2ccc(CSc3nc4c(c(=O)[nH]3)CCC4)c(F)c2)o1)C(C)C [RF-036]
IgG2b in serum (readout for tumor burden) ([1]; 2 mg/kg daily i.p., day 28, vs vehicle): significant differences between the vehicle and RF-036 groups | growth of multiple myeloma in vivo (bioluminescence) ([1]; 2 mg/kg daily, intraperitoneal injection): significantly reduces the growth of multiple myeloma | median survival time ([1]; 5TGM1 bearing mice, 2 mg/kg daily, n=6): 46 days | overall survival ([1]; multiple myeloma bearing mice, 2 mg/kg daily): increases overall survival | impact on viability of multiple myeloma cell lines [2]: up to 50% | cell viability of mature osteoclasts (mature osteoclasts): no effect on cell viability | osteoclast formation (number of TRAP-positive osteoclasts per well) [3]: significantly mitigated osteoclast formation | effects on stromal cells (MSCs and monocytes) [4]: minimal effects
